In ChEMBL document CHEMBL1201862, “PubChem BioAssay data set” (2004):
Where “and” joins values, the source holds several entries; their conditions need not be identical. Equal entries are not always repeated. Calls of active or inactive are those of the source.

What was measured:
[1] = Concentration-dependent survival of SW480 colon cancer line, luminescence detection with CellTiter-Glo, half-maximal inhibitory concentration (AID 1117338); assay type: functional
[2] = RKO cell viability reduction, dose response, CellTiter-Glo luminescence (AID 1117322); assay type: functional
[3] = cytotoxicity toward HCT116 cells – cell-based, CellTiter-Glo luminescence, IC50, dose response (AID 1117332); assay type: functional; settings: HCT-116
[4] = SNU-C1 cell viability reduction, dose response, CellTiter-Glo luminescence (AID 1117323); assay type: functional, cell-based
[5] = cytotoxicity toward Colo320 cells – cell-based, CellTiter-Glo luminescence, IC50, dose response (AID 1117334); assay type: functional; settings: COLO 320
[6] = cytotoxicity toward HT-29 cells – cell-based, CellTiter-Glo luminescence, IC50, dose response (AID 1117330); assay type: functional
[7] = CellTiter-Glo luminescent dose response of DLD-1 viability loss (AID 1117352); assay type: functional
[8] = HCT116 cell viability decrease, GSK3B pretreatment – CellTiter-Glo, IC50, dose response (AID 1117339); assay type: functional; settings: HCT-116
[9] = target: NAD-dependent protein deacylase sirtuin-5, mitochondrial (Homo sapiens, UniProt Q9NXA8); assay: SIRT5 deacylase inhibitors, dose response, biochemical, fluorescence imaging, cherry-pick, set 6 (AID 720597)
[10] = target: E3 ubiquitin-protein ligase Mdm2 (Homo sapiens, UniProt Q00987); assay: enhancers of MDM2-luciferase reporter signal, concentration-effect titration, project on inhibitors of MDM2 ubiquitin ligase, cellular assay, luminescent readout, 384-well plate format (AID 1394); assay type: functional;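 also: MDM2 E3 inhibitors raise luminescence so EC50 is for signal enhancement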
[11] = HepG2 cell cytotoxicity, dose response, cytotoxicity control, ATP luminescence, dry powder, Set4 (AID 743143); assay type: functional, cell-based
[12] = A549 cell cytotoxicity, dose response, cytotoxicity control, CellTiter-Glo luminescence, dry powder, set 3 (AID 743146); assay type: functional, cell-based
[13] = HepG2 cell cytotoxicity, dose response, cytotoxicity control, ATP luminescence, cherry-pick, set 6 (AID 1053125); assay type: functional, cell-based
[14] = cells; settings: HEK293
[15] = target: C-X-C chemokine receptor type 4 (Homo sapiens, UniProt P61073); assay: SAR analysis of small molecule antagonists of the CXCR6 receptor using a CXCR4 receptor luminescent beta-arrestin counterscreen.; assay type: functional
[16] = target: C-C chemokine receptor type 6 (Homo sapiens, UniProt P51684); assay: SAR analysis of small molecule antagonists of the CXCR6 receptor using a CCR6 receptor luminescent beta-arrestin counterscreen.; assay type: functional
[17] = THP-1 cell cytotoxicity, dose response, cytotoxicity control for Vif-APOBEC3G degradation inhibitor project, THP-1 cells (AID 1117359); assay type: functional; settings: Human immunodeficiency virus 1, THP-1
[18] = target: Glutathione-S-transferase (Schistosoma japonicum, UniProt Q26513); assay: biotin-GST/anti-GST TR-FRET signal inhibitors, dose response, artefact control for Vif-APOBEC3G degradation inhibitor project, biochemical (AID 1117362); assay type: functional
Sequence of Glutathione-S-transferase (Q26513 whole entry): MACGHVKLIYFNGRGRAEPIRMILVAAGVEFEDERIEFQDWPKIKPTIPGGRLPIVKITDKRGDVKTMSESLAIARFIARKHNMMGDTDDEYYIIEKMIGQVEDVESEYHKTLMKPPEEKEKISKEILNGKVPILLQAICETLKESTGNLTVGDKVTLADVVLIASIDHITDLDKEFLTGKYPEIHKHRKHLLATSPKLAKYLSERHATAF

Sequence of C-X-C chemokine receptor type 4 (P61073 whole entry): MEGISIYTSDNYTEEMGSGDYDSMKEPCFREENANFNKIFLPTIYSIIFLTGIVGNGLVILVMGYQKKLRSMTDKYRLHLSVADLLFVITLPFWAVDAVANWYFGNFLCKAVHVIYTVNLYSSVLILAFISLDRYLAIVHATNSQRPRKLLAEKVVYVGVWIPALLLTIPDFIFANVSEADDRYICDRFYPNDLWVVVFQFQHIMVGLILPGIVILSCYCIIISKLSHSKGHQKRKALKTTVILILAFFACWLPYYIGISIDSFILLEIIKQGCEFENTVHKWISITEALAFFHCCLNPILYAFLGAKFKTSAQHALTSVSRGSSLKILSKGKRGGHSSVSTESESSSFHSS
Sequence of C-C chemokine receptor type 6 (P51684 whole entry): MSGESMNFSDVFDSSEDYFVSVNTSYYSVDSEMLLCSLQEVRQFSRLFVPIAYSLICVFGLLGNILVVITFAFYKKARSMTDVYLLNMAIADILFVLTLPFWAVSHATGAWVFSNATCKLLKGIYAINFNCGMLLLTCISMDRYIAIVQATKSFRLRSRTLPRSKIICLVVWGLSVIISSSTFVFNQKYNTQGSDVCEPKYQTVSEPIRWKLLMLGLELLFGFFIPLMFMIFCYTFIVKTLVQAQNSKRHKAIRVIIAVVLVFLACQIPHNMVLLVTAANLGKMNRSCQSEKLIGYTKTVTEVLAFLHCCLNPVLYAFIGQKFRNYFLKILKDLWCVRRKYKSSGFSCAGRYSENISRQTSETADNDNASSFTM
Sequence of E3 ubiquitin-protein ligase Mdm2 (Q00987 whole entry): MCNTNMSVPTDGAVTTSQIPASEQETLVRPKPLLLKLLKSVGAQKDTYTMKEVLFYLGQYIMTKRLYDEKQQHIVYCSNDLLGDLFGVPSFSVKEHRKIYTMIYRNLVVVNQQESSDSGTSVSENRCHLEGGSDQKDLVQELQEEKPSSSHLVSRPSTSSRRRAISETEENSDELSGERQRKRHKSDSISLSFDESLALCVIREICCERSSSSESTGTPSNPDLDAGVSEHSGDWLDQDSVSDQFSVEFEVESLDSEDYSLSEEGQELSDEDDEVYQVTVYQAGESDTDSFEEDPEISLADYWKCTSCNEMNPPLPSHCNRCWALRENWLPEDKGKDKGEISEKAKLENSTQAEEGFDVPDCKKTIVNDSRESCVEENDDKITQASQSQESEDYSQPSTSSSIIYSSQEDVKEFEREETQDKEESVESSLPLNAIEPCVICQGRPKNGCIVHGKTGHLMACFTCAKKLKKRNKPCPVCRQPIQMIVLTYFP
Sequence of NAD-dependent protein deacylase sirtuin-5, mitochondrial (Q9NXA8 whole entry): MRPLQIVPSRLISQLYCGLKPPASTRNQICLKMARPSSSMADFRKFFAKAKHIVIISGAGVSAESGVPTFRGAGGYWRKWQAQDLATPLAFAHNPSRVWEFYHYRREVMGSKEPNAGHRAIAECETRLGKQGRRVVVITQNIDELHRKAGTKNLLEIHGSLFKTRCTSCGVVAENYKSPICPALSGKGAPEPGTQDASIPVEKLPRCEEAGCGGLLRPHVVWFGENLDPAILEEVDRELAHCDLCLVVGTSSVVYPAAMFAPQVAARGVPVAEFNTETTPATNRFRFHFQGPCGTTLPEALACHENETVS

SMILES: O=C(OCCO)c1ccccc1O
- IC50 [1]: > 20 µM (inactive)
- IC50 [2]: > 20 µM (inactive)
- IC50 [3]: > 20 µM (inactive)
- IC50 [4]: > 20 µM (inactive)
- IC50 [5]: > 20 µM (inactive)
- IC50 [6]: > 20 µM (inactive)
- IC50 [7]: > 20 µM (inactive)
- IC50 [8]: > 20 µM (inactive)

SMILES: Cc1noc(C)c1NC(=O)Nc1ccc2c(c1)C(=O)N([C@H](C)CO)C[C@H](C)[C@@H](CN(C)Cc1ccc(C(F)(F)F)cc1)OCCCC[C@@H](C)O2
- AC50 [9]: > 30 µM (inactive)

SMILES: COc1ccc(-c2nsc(SCC(=O)Nc3ccc4c(c3)OCO4)n2)cc1
- EC50 [10]: 0.19 µM (not active)

SMILES: COc1cc(C(=O)NCCC(=O)NC2CCCc3ccccc32)cc(OC)c1OC (stereo not drawn)
- AC50 [11]: 21.7 µM (active)
- AC50 [12]: 26.7 µM (active)

SMILES: Cc1c(C(=O)NCc2cccc(C(F)(F)F)c2)sc(=O)n1Cc1ccc(C(=O)N(C)C)cc1
- AC50 [13]: > 52 µM (inactive)
- AC50 [14]: > 52 µM (inactive)

SMILES: COc1cc(C(=O)NC2CC3CCCC(C2)N3CC(=O)Nc2ccccc2Cl)cc(OC)c1OC (stereo not drawn)
- IC50 [15]: > 79 µM (inactive) and 60.1 µM (inactive)
- IC50 [16]: > 79 µM (inactive)

SMILES: O=C(COC(=O)c1ccccc1OC(F)F)Nc1ccc2[nH]c(O)nc2c1
- CC50 [17]: > 40 µM (active)
- IC50 [18]: > 100 µM (active)
